Assay results as given in patent US7528141B2, “Use of cyclopenta[g]quinazoline derivatives for treating cancer” (BTG International Limited, priority 2001, dated 2009).
Values joined by “and” are separate entries in the source; they are usually repeats but may differ in a detail not shown here. Identical values can stand only once. Like-named read-outs stand apart in the source and are kept apart here.

How the values were obtained:
[1] = target: T1, thymidylate synthase (TS) from L1210 mouse leukaemia cells (Mus musculus, UniProt P07607); test: Inhibition of isolated L1210 thymidylate synthase; format: biochemical
T1 construct: obtained in partially purified form from L1210 mouse leukaemia cells; endogenous in cells; host or cells: L1210 mouse leukaemia cells (enzyme partially purified)

[2] = target: T2, reduced-folate carrier (RFC) (Mus musculus, UniProt P41438); test: Inhibition of 3H MTX uptake in L1210 cells; format: cell-based; conditions: Inhibition of 3H MTX uptake Ki, L1210, mouse L1210 tumor cells; high Ki = low affinity for RFC
T2 construct: endogenous in cells; host or cells: L1210
T2 sequence (P41438 1-512): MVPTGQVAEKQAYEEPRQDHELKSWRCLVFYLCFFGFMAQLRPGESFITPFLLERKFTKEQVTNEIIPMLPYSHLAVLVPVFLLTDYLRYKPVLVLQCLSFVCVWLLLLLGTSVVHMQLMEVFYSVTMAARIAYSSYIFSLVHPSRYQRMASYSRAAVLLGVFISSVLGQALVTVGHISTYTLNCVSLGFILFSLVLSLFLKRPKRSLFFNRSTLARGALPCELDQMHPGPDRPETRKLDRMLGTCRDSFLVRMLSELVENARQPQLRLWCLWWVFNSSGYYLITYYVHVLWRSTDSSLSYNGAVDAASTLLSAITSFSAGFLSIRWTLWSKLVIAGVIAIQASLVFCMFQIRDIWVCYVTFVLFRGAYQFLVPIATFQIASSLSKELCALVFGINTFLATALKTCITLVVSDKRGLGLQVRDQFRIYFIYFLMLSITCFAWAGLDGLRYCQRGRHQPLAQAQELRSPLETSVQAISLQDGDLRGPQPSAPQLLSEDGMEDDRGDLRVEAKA

[3] = target: T3, reduced-folate carrier (RFC) (Homo sapiens, UniProt P41440); test: Inhibition of 3H MTX uptake in W1L2 cells; format: cell-based; conditions: Inhibition of 3H MTX uptake Ki, W1L2, human lymphoblastoid W1L2 cells; high Ki = low affinity for RFC
T3 construct: endogenous in cells; host or cells: W1L2
T3 sequence (P41440 1-591): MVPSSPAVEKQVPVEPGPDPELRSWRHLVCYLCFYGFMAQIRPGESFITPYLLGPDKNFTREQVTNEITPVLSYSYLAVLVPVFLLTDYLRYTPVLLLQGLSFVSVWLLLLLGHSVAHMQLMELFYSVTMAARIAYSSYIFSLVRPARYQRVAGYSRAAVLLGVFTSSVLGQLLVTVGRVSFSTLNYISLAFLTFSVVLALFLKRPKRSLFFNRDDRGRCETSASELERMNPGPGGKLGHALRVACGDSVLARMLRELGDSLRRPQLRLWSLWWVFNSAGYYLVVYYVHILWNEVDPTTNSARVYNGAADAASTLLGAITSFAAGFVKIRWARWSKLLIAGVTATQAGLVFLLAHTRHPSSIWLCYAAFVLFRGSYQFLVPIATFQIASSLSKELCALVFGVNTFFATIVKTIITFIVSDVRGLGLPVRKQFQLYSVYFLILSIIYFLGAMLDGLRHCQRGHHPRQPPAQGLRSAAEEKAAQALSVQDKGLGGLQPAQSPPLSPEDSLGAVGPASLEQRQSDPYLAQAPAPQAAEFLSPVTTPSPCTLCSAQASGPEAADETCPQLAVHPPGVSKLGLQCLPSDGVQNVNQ

[4] = target: T4, α-FR (Mus musculus, UniProt P35846); test: Binding to α-FR relative to folic acid, L1210-FBP cells; conditions: L1210-FBP mouse tumor cells overexpressing α-FR; folic acid = 1
T4 construct: endogenous in cells; host or cells: mouse L1210-FBP cells

[5] = target: T5, α-FR (Homo sapiens, UniProt P15328); test: Binding to α-FR relative to folic acid, A431-FBP cells; conditions: human A431 cells transfected with α-FR; folic acid = 1
T5 construct: expressed in transfected cells; host or cells: A431 (human vulvar carcinoma)

[6] = system: KB cells; test: Inhibition of cell growth, KB cells; conditions: for fold increased IC50 in presence of folic acid, KB: IC50 + 1 μM FA vs without FA;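 for all read-outs here: KB nasopharyngeal carcinoma cells express the α-folate receptor, and leucovorin at 20 nM was the folate source in the growth medium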
[7] = system: A431 cells; test: Inhibition of cell growth, A431 cells; conditions: for fold increased IC50 in presence of folic acid, A431: IC50 + 1 μM FA vs without FA
[8] = system: A431-FBP cells; test: Inhibition of cell growth, A431-FBP cells; conditions: for fold increased sensitivity compared with A431, A431-FBP: A431 IC50 vs A431-FBP IC50; for fold increased IC50 in presence of folic acid, A431-FBP: IC50 + 1 μM FA vs without FA
[9] = read-out: Inhibition of isolated L1210 TS, Kiapp
[10] = Homo sapiens, KB, read-out: Inhibition of cell growth, IC50, KB, 20 nM LV
[11] = Homo sapiens, A-431, read-out: Inhibition of cell growth, IC50, A431
[12] = Homo sapiens, read-out: Inhibition of cell growth, IC50, A431-FBP
[13] = read-out: Inhibition of cell growth, IC50, KB + 1 μM FA, 20 nM LV, + 1 μM folic acid
[14] = read-out: Inhibition of cell growth, IC50, A431 + 1 μM FA, 20 nM LV, + 1 μM folic acid
[15] = read-out: Inhibition of cell growth, IC50, A431-FBP + 1 μM FA, 20 nM LV, + 1 μM folic acid
[16] = Inhibition of isolated L1210 TS, Kiapp

T4 sequence (P35846 25-232): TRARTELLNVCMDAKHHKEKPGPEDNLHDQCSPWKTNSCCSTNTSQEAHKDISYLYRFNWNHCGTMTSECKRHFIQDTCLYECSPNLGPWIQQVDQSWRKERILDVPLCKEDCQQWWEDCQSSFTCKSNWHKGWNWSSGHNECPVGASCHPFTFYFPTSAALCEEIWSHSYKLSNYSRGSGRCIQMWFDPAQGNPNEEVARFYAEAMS
T5 sequence (P15328 25-234): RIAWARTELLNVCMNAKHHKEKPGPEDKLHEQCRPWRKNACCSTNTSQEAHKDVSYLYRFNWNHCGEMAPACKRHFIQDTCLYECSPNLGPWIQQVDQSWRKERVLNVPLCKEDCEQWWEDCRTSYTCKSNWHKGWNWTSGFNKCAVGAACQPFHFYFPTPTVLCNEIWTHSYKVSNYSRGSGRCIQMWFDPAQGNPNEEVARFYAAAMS
T1 sequence (P07607 whole entry): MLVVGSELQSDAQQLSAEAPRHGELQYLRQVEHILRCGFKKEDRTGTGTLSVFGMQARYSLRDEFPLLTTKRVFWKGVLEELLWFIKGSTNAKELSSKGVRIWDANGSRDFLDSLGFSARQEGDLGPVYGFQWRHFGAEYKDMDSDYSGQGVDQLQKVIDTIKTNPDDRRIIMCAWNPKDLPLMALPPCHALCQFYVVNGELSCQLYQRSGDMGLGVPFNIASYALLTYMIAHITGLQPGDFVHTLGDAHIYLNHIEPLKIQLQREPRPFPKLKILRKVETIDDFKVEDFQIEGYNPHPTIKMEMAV

| Structure (SMILES) | Ki [1, 9] | Ki [2] | Ki [3] | Inverse relative affinity for α-FR, L1210-FBP [4] | Inverse relative affinity for α-FR, A431-FBP [5] | fold increased IC50 in presence of folic acid, KB ([6]; 20 nM LV) | IC50 [6, 10] | fold increased IC50 in presence of folic acid, A431 ([7]; 20 nM LV) | IC50 [7, 11] | fold increased IC50 in presence of folic acid, A431-FBP ([8]; 20 nM LV) | IC50 [8, 12] | IC50 [6, 13] | IC50 [7, 14] | IC50 [8, 15] | IC50 ([6]; read-out: Inhibition of cell growth, IC50, KB, 20 nM LV) | fold increased sensitivity compared with A431, A431-FBP ([8]; 20 nM LV) | Ki [1, 16] |
| --- | --- | --- | --- | --- | --- | --- | --- | --- | --- | --- | --- | --- | --- | --- | --- | --- | --- |
| C#CCN(c1ccc(C(=O)N[C@@H](CCC(=O)N[C@H](CCC(=O)O)C(=O)O)C(=O)O)cc1)C1CCc2cc3nc(C)[nH]c(=O)c3cc21 (mixture of isomers) [CB300638 (R, S), N-{-{4-[N-((6RS)-2-methyl-4-oxo-3,4,7,8-tetrahydro-6H-cyclopenta[g]quinazolin-6-yl)-N-(prop-2-ynyl)amino]benzoyl}-L-γ-glutamyl}-D-glutamic acid] | 0.42 nM | 166000 ± 34000 nM | 279000 ± 146000 nM | 0.60 ± 0.06 | 0.59 ± 0.03 | (140) fold | 5.3 ± 2.5 nM | (1) fold | 1400 ± 230 nM | (130) fold | 6.5 ± 0.1 nM | – | – | – | – | (220) fold | – |
| C#CCN(c1ccc(C(=O)N[C@@H](CCC(=O)N[C@H](CCC(=O)O)C(=O)O)C(=O)O)cc1)C1CCc2cc3nc(CO)[nH]c(=O)c3cc21 (mixture of isomers) [CB300945 (R, S)] | – | > 250000 nM | > 250000 nM | 0.73 ± 0.06 | 0.67 ± 0.11 | (2100) fold | 3.4 ± 0.9 nM | (1) fold | 9800 ± 3400 nM | (3100) fold | 2.1 ± 1.1 nM | – | – | 6500 ± 860 nM | – | (4700) fold | 2.6 nM and 3.3 nM |
| C#CCN(c1ccc(C(=O)N[C@@H](CCC(=O)N(C)[C@@H](CCC(=O)O)C(=O)O)C(=O)O)cc1)C1CCc2cc3nc(CO)[nH]c(=O)c3cc21 (mixture of isomers) [CB300960 (R, S), N-{N-{4-[N-((6RS)-2-hydroxymethyl-4-oxo-3,4,7,8-tetrahydro-6H-cyclopenta[g]quinazolin-6-yl)-N-(prop-2-ynyl)amino]benzoyl}-L-γ-glutamyl}-N-methyl-L-glutamic acid] | – | – | – | – | – | – | – | (1) fold | 4500 nM | (180) fold | 28 nM | – | – | – | – | – | – |
| C#CCN(c1ccc(C(=O)N[C@@H](CCC(=O)N[C@H](CCC(=O)O)C(=O)O)C(=O)O)cc1)[C@H]1CCc2cc3nc(CO)[nH]c(=O)c3cc21 [CB300945 (S)] | – | – | – | 0.70 ± 0.015 | 0.69 ± 0.05 | (1800) fold | 2.7 ± 1.5 nM | (1) fold | 7000 nM | (4300) fold | 1.5 nM | 4800 ± 750 nM | 6500 nM | 6400 nM | – | (4700) fold | 1.9 nM |
| Cc1nc2ccc(CN(C)c3ccc(C(=O)N[C@@H](CCC(=O)O)C(=O)O)s3)cc2c(=O)[nH]1 [Raltitrexed, reference compound] | 510 nM | 2600 nM and 2300 nM | – | – | – | – | 1.1 ± 0.71 nM | – | 3.4 ± 1.6 nM | – | 0.79 ± 0.36 nM | 1.2 ± 0.59 nM | 3.6 ± 1.6 nM | 1.3 ± 0.7 nM | – | – | – |

Further lines, with some results ahead:

| Ki [1, 9] | Ki [2] | Ki [3] | Inverse relative affinity for α-FR, L1210-FBP [4] | Inverse relative affinity for α-FR, A431-FBP [5] | fold increased IC50 in presence of folic acid, KB ([6]; 20 nM LV) | IC50 [6, 10] | fold increased IC50 in presence of folic acid, A431 ([7]; 20 nM LV) | IC50 [7, 11] | fold increased IC50 in presence of folic acid, A431-FBP ([8]; 20 nM LV) | IC50 [8, 12] | IC50 [6, 13] | IC50 [7, 14] | IC50 [8, 15] | IC50 ([6]; read-out: Inhibition of cell growth, IC50, KB, 20 nM LV) | Structure (SMILES) | fold increased sensitivity compared with A431, A431-FBP ([8]; 20 nM LV) | Ki [1, 16] |
| --- | --- | --- | --- | --- | --- | --- | --- | --- | --- | --- | --- | --- | --- | --- | --- | --- | --- |
| 0.78 nM | > 250000 nM | > 250000 nM | 0.62 ± 0.04 | 0.64 ± 0.046 | (430) fold | 5.1 ± 0.31 nM | (1) fold | 2200 ± 170 nM | (2100) fold | 0.92 ± 0.12 nM | 2200 ± 400 nM | 2100 ± 58 nM | 1900 ± 170 nM | – | C#CCN(c1ccc(C(=O)N[C@@H](CCC(=O)N(C)C(CCC(=O)O)C(=O)O)C(=O)O)cc1)C1CCc2cc3nc(C)[nH]c(=O)c3cc21 (mixture of isomers) [CB300899 (R, S), N-methyl-N-{N-{4-[N-((6RS)-2-methyl-4-oxo-3,4,7,8-tetrahydro-6H-cyclopenta[g]quinazolin-6-yl)-N-(prop-2-ynyl)amino]benzoyl}-L-γ-glutamyl}-L-glutamic acid] | (2400) fold | – |
| – | 46000 ± 17000 nM | – | – | – | – | – | – | 1200 ± 630 nM | – | 260 ± 120 nM | – | 1400 ± 560 nM | 450 ± 140 nM | – | C#CCN(Cc1ccc2nc(N)[nH]c(=O)c2c1)c1ccc(C(=O)N[C@@H](CCC(=O)O)C(=O)O)cc1 [CB3717, reference compound] | – | – |
| 23 nM | 4300 nM and 4700 nM | 1300 nM | 0.30 ± 0.07 | – | (2) fold | 130 ± 6 nM | (1) fold | 2200 ± 260 nM | (1) fold | 1400 ± 360 nM | 310 ± 40 nM | 2600 ± 920 nM | 1500 ± 290 nM | – | C#CCN(Cc1cc2c(=O)[nH]c(C)nc2cc1C)c1ccc(C(=O)N[C@@H](CCC(=O)O)C(=O)O)cc1 [CB3900, reference compound] | (2) fold | – |
| 12 nM | – | – | 0.71 ± 0.012 | 0.57 ± 0.032 | (11) fold | 420 nM | (1) fold | 4200 nM | (2) fold | 8800 nM | – | 5800 nM | 18000 nM | 500 nM | C#CCN(c1ccc(C(=O)N[C@@H](CCC(=O)O)C(=O)O)cc1)C1CCc2cc3nc(CO)[nH]c(=O)c3cc21 (stereo partly drawn) [CB300959 (R, S), reference compound] | (0.5) fold | – |
| – | 2600 ± 60 nM | 1200 nM and 1000 nM | – | – | – | 2 ± 0.4 nM | – | 24 ± 4 nM | – | 12 ± 5 nM | 20 ± 2 nM | 26 ± 3.8 nM | 20 ± 4.6 nM | – | C#CCN(Cc1ccc2nc(C)[nH]c(=O)c2c1)c1ccc(C(=O)N[C@@H](CCC(=O)O)C(=O)O)cc1 [ICI 198583, reference compound] | – | – |
